Test results taken from patent US4804684A, “Symmetrical O-substituted dioximes of benzo-fused β-diketocyclo-alkylenes, the processes for their preparation and their application as drugs” (Panmedica S.A., priority 1986, dated 1989).
≈ marks a conversion by molar mass, not a printed value. Where a name gives a salt, the structure may show the parent alone.

How the values were obtained:
[1] = system: platelet-rich human plasma; platelet aggregation induced by ADP; assay: Platelet aggregation (platelet-rich human plasma) induced in vitro by ADP; type: cell-based; details: platelet-rich human plasma, 300,000 platelets/cm^2, 2.0 μg/ml of ADP; read-out: IC50, inductor: ADP
Experimental: (§1) Study of the Effects on the Platelet Aggregation (Platelet-Rich Human Plasma) Induced in Vitro By: ADP, Collagen or Arachidonic Acid Blood samples from volunteer donors are treated and adjusted to a platelet concentration of 300,000/cm^2 and then incubated with different concentrations of the test products. Aggregation is induced by 2.0 μg/ml of ADP or by 10.0 μg/ml of collagen. The measurements are made using a Bryston-type aggregometer--or CHRONOLOG. The changes in optical density are noted and the values of the concentrations which cause a 50% inhibition are calculated.

[2] = system: platelet-rich human plasma; platelet aggregation induced by collagen; assay: Platelet aggregation (platelet-rich human plasma) induced in vitro by collagen; type: cell-based; details: platelet-rich human plasma, 300,000 platelets/cm^2, 10.0 μg/ml of collagen; read-out: IC50, inductor: collagen
Experimental: as §1

[3] = system: isolated guinea-pig intestine; assay: Antagonistic effects on isolated guinea-pig intestine (MAGNUS); details: 0.1 μg/ml
[4] = system: platelet aggregation; assay: In vitro inhibition of platelet aggregation (BORN's method), induced by collagen or ADP; type: cell-based, animal and human; details: 100 μg/ml, aspirin as reference
Experimental: In vitro inhibition of platelet aggregation The inhibition of platelet aggregation is measured in vitro by BORN's method (Nature 4832, 927 (1962)), the aggregation being induced by collagen or ADP. […] The aggregation can also be induced in vitro by serotonin, arachidonic acid and norepinephrine. Furthermore, this inhibitory effect was observed on platelet-rich plasma (PRP) of animal origin and human origin.

Compound	IC50 [1] [µg/mL]	IC50 [2] [µg/mL]	inhibitory effect on isolated guinea-pig intestine [3]	inhibition of platelet aggregation compared with aspirin [4]
C=CCON=C1CC(=NOCC=C)c2ccccc2-c2ccccc21 [Example 1, 5,7 -Bis(Allyloxyimino)-6,7-Dihydro-(5H)-Dibenzo[a,c]Cycloheptene]	650 (≈ 1960 µM)	800 (≈ 2410 µM)	–	–
CON=C1CC(=NOC)c2ccccc2-c2ccccc21 [Example 2, 5,7-Bis(Methoxyimino)-6,7-Dihydro-(5H)-Dibenzo[a,c]Cycloheptene]	–	800 (≈ 2850 µM)	–	–
CCON=C1CC(=NOCC)c2ccccc2-c2ccccc21 [Example 3, 5,7-Bis(Ethoxyimino)-6,7-Dihydro-(5H)-Dibenzo[a,c]Cycloheptene]	620 (≈ 2010 µM)	500 (≈ 1620 µM)	–	–
CCCON=C1CC(=NOCCC)c2ccccc2-c2ccccc21 [Example 4, 5,7-Bis(n-Propoxyimino)-6,7-Dihydro-(5H)-Dibenzo[a,c]Cycloheptene]	600 (≈ 1780 µM)	420 (≈ 1250 µM)	–	–
N#CCCCON=C1CC(=NOCCCC#N)c2ccccc2-c2ccccc21 [Example 5, 5,7-Bis(3-Cyanopropoxyimino)-6,7-Dihydro-(5H)-Dibenzo[a,c]Cycloheptene]	420 (≈ 1090 µM)	650 (≈ 1680 µM)	–	–
CC(C)(C)ON=C1CC(=NOC(C)(C)C)c2ccccc2-c2ccccc21 [Example 6, 5,7-Bis(Tert.-Butoxyimino)-6,7-Dihydro-(5H)-Dibenzo[a,c]Cycloheptene]	460 (≈ 1260 µM)	600 (≈ 1650 µM)	–	–
c1ccc2c(c1)C(=NOCC1CCCCC1)CC(=NOCC1CCCCC1)c1ccccc1-2 [Example 7, 5,7-Bis(Cyclohexylmethoxyimino)-6,7-Dihydro-(5H)-Dibenzo[a,c]Cycloheptene]	600 (≈ 1350 µM)	600 (≈ 1350 µM)	–	–
c1ccc(CON=C2CC(=NOCc3ccccc3)c3ccccc3-c3ccccc32)cc1 [Example 8, 5,7-Bis(Benzyloxyimino)-6,7-Dihydro-(5H)-Dibenzo[a,c]Cycloheptene]	650 (≈ 1500 µM)	800 (≈ 1850 µM)	–	–
c1ccc(CCON=C2CC(=NOCCc3ccccc3)c3ccccc3-c3ccccc32)cc1 [Example 9, 5,7-Bis(2-Phenylethoxyimino)-6,7-Dihydro-(5H)-Dibenzo[a,c]Cycloheptene]	600 (≈ 1300 µM)	600 (≈ 1300 µM)	–	–
CCOC(=O)CON=C1CC(=NOCC(=O)OCC)c2ccccc2-c2ccccc21 [Example 10, 5,7-Bis(Ethoxycarbonylmethoxyimino)-6,7-Dihydro-(5H)-Dibenzo[a,c]Cycloheptene]	400 (≈ 942 µM)	650 (≈ 1530 µM)	–	–
CC(C)(C)OC(=O)CON=C1CC(=NOCC(=O)OC(C)(C)C)c2ccccc2-c2ccccc21 [Example 11, 5,7-Bis(Tert.-Butoxycarbonylmethoxyimino)-6,7-Dihydro-(5H)-Dibenzo[a,c]Cycloheptene]	200 (≈ 416 µM)	320 (≈ 666 µM)	–	–
CCOC(=O)CCCON=C1CC(=NOCCCC(=O)OCC)c2ccccc2-c2ccccc21 [Example 12, 5,7-Bis(Ethoxycarbonylpropoxyimino)-6,7-Dihydro-(5H)-Dibenzo[a,c]Cycloheptene]	450 (≈ 936 µM)	670 (≈ 1390 µM)	–	–
O=C(O)CON=C1CC(=NOCC(=O)O)c2ccccc2-c2ccccc21 [Example 13, 5,7-Bis(Hydroxycarbonylmethoxyimino)-6,7-Dihydro-(5H)-Dibenzo[a,c]Cycloheptene]	400 (≈ 1090 µM)	450 (≈ 1220 µM)	–	–
Cl.Cl.c1cncc(CON=C2CC(=NOCc3cccnc3)c3ccccc3-c3ccccc32)c1 [Example 14, 5,7-Bis(pyridin-3-ylmethoxyimino)-6,7-dihydro-(5H)-dibenzo[a,c]cycloheptene dihydrochloride]	460	600	still substantial	–
Cl.Cl.c1ccc2c(c1)C(=NOCCN1CCCCC1)CC(=NOCCN1CCCCC1)c1ccccc1-2 [Example 20, 5,7-Bis(Piperidin-1-ylethoxyimino)-6,7-Dihydro-(5H)-Dibenzo[a,c]Cycloheptene Dihydrochloride]	80	120	–	comparable or even superior to aspirin
CCN(CC)CCON=C1c2ccccc2C(=NOCCN(CC)CC)C1c1ccccc1 (stereo not shown) [Example 21, 1,3-Bis(2-Diethylaminoethoxyimino)-2-Phenyl-(1H)-Indene-(2H) Dihydrochloride]	24	40	–	comparable or even superior to aspirin
CCN(CC)CCON=C1CC(=NOCCN(CC)CC)c2ccccc21 [Example 22, 1,3-Bis(2-Diethylaminoethoxyimino)-(1H)-Indene-(1H) Dihydrochloride]	160	145	still substantial	–
c1ccc2c(c1)C(=NOCCN1CCOCC1)CC2=NOCCN1CCOCC1 [Example 23, 1,3-Bis(2-Morpholinoethoxyimino)-(1H)-Indene-(2H) Dihydrochloride]	420	350	–	–
c1ccc(C2C(=NOCCN3CCOCC3)c3ccccc3C2=NOCCN2CCOCC2)cc1 (stereo not shown) [Example 24, 1,3-Bis(2-Morpholinoethoxyimino)-2-Phenyl-(1H)-Indene-(2H) Dihydrochloride]	210	340	–	comparable or even superior to aspirin
c1ccc(C2C(=NOCCN3CCCCC3)c3ccccc3C2=NOCCN2CCCCC2)cc1 (stereo not shown) [Example 25, 1,3-Bis(2-Piperidin-1-ylethoxyimino)-2-Phenyl-(1H)-Indene-(2H) Dihydrochloride]	20	38	–	comparable or even superior to aspirin
COc1ccc(C2C(=NOCCN3CCCCC3)c3ccccc3C2=NOCCN2CCCCC2)cc1 (stereo not shown) [Example 26, 1,3-Bis(2-Piperidin-1-ylethoxyimino-2-(4-Methoxyphenyl-(1H)-Indene-(2H) Dihydrochloride]	18	24	–	comparable or even superior to aspirin
CCN(CC)CCON=C1c2ccccc2C(=NOCCN(CC)CC)C1c1ccc(Cl)cc1 (stereo not shown) [Example 27, 1,3-Bis(2-Diethylaminoethoxyimino)-2-(4-Chlorophenyl)-(1H)-Indene-(2H) Dihydrochloride]	28	40	–	comparable or even superior to aspirin
CCN(CC)CCON=C1c2ccccc2C(=NOCCN(CC)CC)C1c1ccc(C)cc1 (stereo not shown) [Example 28, 1,3-Bis(2-Diethylaminoethoxyimino)-2-(4-Methylphenyl)-(1H)-Indene-(2H) Dihydrochloride]	40	62	–	comparable or even superior to aspirin
CCN(CC)CCON=C1c2ccccc2C(=NOCCN(CC)CC)C1c1ccc2c(c1)OCO2 (stereo not shown) [Example 29, 1,3-Bis(2-Diethylaminoethoxyimino)-2-(3,4-Methylenedioxyphenyl)-(1H)-Indene-(2H) Dihydochloride]	100 (≈ 202 µM)	110 (≈ 222 µM)	–	comparable or even superior to aspirin
CCOC(=O)CON=C1c2ccccc2C(=NOCC(=O)OCC)C1c1ccccc1 (stereo not shown) [Example 30, 1,3-Bis(Ethoxycarbonylmethoxyimino)-2-Phenyl-(1H)-Indene-(2H)]	210 (≈ 495 µM)	150 (≈ 353 µM)	–	comparable or even superior to aspirin
O=C(O)CON=C1c2ccccc2C(=NOCC(=O)O)C1c1ccccc1 (stereo not shown) [Example 31, 1,3-Bis(Hydroxycarbonylmethoxyimino)-2-Phenyl-(1H)-Indene-(2H)]	–	250 (≈ 679 µM)	–	–
CCN(CC)CCON=C1c2ccccc2-c2ccccc2C(=NOCCN(CC)CC)C1c1ccccc1.Cl.Cl (stereo not shown) [Example 32, 5,7-Bis(2-Diethylaminoethoxyimino)-6-Phenyl-6,7-Dihydro-(5H)-Dibenzo[a,c]Cycloheptene Dihydrochloride]	18	20	–	comparable or even superior to aspirin
CCN(CC)CCON=C1c2ccccc2-c2ccccc2C(=NOCCN(CC)CC)C1c1ccc(F)cc1.Cl.Cl (stereo not shown) [Example 33, 5,7-Bis(2-Diethylaminoethoxyimino)-6-(4-Fluorophenyl)-6,7-Dihydro-(5H)-Dibenzo[a,c]Cycloheptene Dihydrochloride]	22	12	–	comparable or even superior to aspirin
CCN(CC)CCON=C1c2ccccc2-c2ccccc2C(=NOCCN(CC)CC)C1c1ccc(Cl)cc1.Cl.Cl (stereo not shown) [Example 34, 5,7-Bis(2-Diethylaminoethoxyimino)-6-(4-Chlorophenyl)-6,7-Dihydro-(5H)-Dibenzo[a,c]Cycloheptene Dihydrochloride]	24	40	–	comparable or even superior to aspirin
CCN(CC)CCON=C1c2ccccc2-c2ccccc2C(=NOCCN(CC)CC)C1c1ccc(OC)cc1.Cl.Cl (stereo not shown) [Example 35, 5,7-Bis(Diethylaminoethoxyimino)-6-(4-Methoxyphenyl)-6,7-Dihydro-(5H)-Dibenzo[a,c]Cycloheptene Dihydrochloride]	16	25	–	comparable or even superior to aspirin
